Experiments:
hNav 1.7 = hNav 1.7 (Homo sapiens (Human), UniProt Q15858); test: Electrophysiological evaluation, automated patch clamp IonWorks Quattro (Population Patch Clamp mode); type: cell-based; settings: HEK293A cells stably expressing hNav 1.7/β1/β2; response to second depolarization pulse, pre-pulse potential set to V1/2; read-out: hNav1.7 IC50
[1] = test system: mice and rats affected by thermal hyperalgesia; test: Thermal hyperalgesia assay; type: in vivo; settings: oral administration, constant dose, against the vehicle treatment group; latency to escape behaviors after thermal stimulation of hind paw;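 also: measurement times set by the study director and not disclosed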

Chain of hNav 1.7 (Q15858 whole entry): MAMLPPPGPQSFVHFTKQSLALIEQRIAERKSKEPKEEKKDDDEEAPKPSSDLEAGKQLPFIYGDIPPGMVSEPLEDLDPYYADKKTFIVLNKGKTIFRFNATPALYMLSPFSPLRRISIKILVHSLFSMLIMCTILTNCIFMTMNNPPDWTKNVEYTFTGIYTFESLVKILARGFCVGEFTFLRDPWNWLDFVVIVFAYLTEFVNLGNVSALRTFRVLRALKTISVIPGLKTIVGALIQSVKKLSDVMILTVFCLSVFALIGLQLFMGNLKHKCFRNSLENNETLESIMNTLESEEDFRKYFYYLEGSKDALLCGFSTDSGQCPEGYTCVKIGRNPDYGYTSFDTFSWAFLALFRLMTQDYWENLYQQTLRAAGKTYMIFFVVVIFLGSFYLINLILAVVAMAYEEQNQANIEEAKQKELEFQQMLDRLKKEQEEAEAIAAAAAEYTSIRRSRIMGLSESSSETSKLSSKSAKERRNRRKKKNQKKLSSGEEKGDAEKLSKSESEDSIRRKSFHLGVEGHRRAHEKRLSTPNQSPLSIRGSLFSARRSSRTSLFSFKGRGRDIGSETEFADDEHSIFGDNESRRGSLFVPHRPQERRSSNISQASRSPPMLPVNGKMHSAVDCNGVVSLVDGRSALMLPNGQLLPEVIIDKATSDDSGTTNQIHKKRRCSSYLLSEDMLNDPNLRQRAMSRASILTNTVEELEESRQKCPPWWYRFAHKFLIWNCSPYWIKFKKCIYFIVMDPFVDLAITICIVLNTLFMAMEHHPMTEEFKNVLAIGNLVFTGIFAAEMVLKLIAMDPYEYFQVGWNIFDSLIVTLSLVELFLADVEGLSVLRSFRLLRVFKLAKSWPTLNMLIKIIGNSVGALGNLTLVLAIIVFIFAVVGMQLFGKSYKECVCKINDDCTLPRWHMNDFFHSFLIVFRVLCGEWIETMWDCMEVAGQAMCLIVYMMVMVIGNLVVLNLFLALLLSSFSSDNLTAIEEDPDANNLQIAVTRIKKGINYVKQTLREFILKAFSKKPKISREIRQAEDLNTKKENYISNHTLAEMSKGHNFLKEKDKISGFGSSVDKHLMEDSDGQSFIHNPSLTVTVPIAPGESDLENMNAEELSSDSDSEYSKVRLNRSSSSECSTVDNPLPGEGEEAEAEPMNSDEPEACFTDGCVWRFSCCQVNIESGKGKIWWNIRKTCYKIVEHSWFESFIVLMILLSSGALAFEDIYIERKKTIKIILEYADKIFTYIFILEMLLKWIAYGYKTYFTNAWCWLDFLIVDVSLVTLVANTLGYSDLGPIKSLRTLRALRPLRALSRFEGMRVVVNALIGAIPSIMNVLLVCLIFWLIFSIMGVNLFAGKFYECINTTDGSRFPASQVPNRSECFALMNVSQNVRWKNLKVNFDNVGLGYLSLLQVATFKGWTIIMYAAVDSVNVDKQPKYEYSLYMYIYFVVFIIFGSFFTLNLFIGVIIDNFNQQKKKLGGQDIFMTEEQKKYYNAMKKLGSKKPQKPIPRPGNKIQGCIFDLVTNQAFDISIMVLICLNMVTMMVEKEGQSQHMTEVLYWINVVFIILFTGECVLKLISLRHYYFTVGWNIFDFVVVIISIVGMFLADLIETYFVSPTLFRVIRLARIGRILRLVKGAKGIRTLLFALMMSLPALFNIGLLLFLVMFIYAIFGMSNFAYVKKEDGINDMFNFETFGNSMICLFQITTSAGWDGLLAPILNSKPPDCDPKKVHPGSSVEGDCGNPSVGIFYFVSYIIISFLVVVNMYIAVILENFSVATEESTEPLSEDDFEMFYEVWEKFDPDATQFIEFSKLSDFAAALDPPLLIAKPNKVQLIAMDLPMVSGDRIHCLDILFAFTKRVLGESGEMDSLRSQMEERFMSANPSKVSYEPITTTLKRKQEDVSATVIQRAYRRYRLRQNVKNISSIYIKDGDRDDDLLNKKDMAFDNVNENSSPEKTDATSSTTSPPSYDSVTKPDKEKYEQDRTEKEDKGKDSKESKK
Chain of hNav 1.7 (Q07699 19-218 partner): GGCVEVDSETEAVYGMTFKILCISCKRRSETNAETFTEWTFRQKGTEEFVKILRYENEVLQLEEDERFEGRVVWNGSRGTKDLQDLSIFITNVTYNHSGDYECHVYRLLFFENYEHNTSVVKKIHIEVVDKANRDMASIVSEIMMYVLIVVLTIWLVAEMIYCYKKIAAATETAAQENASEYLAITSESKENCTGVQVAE
Chain of hNav 1.7 (O60939 30-215 partner): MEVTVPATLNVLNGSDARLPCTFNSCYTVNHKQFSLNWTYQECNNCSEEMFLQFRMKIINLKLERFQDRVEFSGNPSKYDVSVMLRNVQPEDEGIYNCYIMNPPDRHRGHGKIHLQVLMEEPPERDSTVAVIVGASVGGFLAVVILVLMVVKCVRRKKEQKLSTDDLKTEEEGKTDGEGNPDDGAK

SMILES	IC50 (hNav 1.7) [nM]	Ratio of improving pain score (%) [1]
Cn1nccc1[C@H]1CCC[C@@H]1Oc1ccc(S(=O)(=O)Nc2ccncn2)cc1Cl (relative stereo) [Example 23, 3-Chloro-4-({[(1S*,2R*)-2-(1-methyl-1H-pyrazol-5-yl)cyclopentyl]oxy}-N-(pyrimidin-4-yl)benzenesulfonamide]	130	A (“A” when the rate was 61 to 100%)
CCn1nccc1[C@H]1CCCC[C@@H]1Oc1cc(F)c(S(=O)(=O)Nc2ccncn2)cc1F (relative stereo) [Example 28, 4-{[(1S*,2R*)-2-(1-Ethyl-1H-pyrazol-5-yl)cyclohexyl]oxy}-2,5-difluoro-N-(pyrimidin-4-yl)benzenesulfonamide]	46	C (“C” when the rate was 0 to 30%)
Cn1nccc1[C@H]1CCC[C@@H]1Oc1ccc(S(=O)(=O)Nc2ccncn2)c(F)c1 (relative stereo) [Example 29, 2-Fluoro-4-{[(1S*,2R*)-2-(1-methyl-1H-pyrazol-5-yl)cyclopentyl]oxy}-N-(pyrimidin-4-yl)benzenesulfonamide]	1800	A (“A” when the rate was 61 to 100%)
O=S(=O)(Nc1ccncn1)c1cc(F)c(O[C@H]2CCCC[C@@H]2c2cn[nH]c2)cc1F (relative stereo) [Example 33, 2,5-Difluoro-4-{[(1S*,2R*)-2-(1H-pyrazol-4-yl)cyclohexyl]oxy}-N-(pyrimidin-4-yl)benzenesulfonamide]	300	A (“A” when the rate was 61 to 100%)
Nc1cc([C@H]2CCCC[C@@H]2Oc2cc(F)c(S(=O)(=O)Nc3ccncn3)cc2F)ccn1 (relative stereo) [Example 35, 4-{[(1S*,2R*)-2-(2-Aminopyridin-4-yl)cyclohexyl]oxy}-2,5-difluoro-N-(pyrimidin-4-yl)benzenesulfonamide]	99	B (“B” when the rate was 31 to 60%)
CCn1nccc1[C@H]1CCC[C@@H]1Oc1cc(F)c(S(=O)(=O)Nc2ccncn2)cc1F (relative stereo) [Example 37, 4-{[(1S*,2R*)-2-(1-Ethyl-1H-pyrazol-5-yl)cyclopentyl]oxy}-2,5-difluoro-N-(pyrimidin-4-yl)benzenesulfonamide]	210	C (“C” when the rate was 0 to 30%)
Cn1nccc1[C@H]1CC(F)(F)CC[C@@H]1Oc1ccc(S(=O)(=O)Nc2ccncn2)c(F)c1 (relative stereo) [Example 130, 4-{[(1S*,2R*)-4,4-Difluoro-2-(1-methyl-1H-pyrazol-5-yl)cyclohexyl]oxy}-2-fluoro-N-(pyrimidin-4-yl)benzenesulfonamide]	880	
Cn1nccc1[C@H]1CCCC[C@@H]1Oc1cc(F)c(S(=O)(=O)Nc2ccnc(=O)[nH]2)cc1Cl (relative stereo) [Example 153, 5-Chloro-2-fluoro-4-{[(1S*,2R*)-2-(1-methyl-1H-pyrazol-5-yl)cyclohexyl]oxy}-N-(2-oxo-2,3-dihydropyrimidin-4-yl)benzenesulfonamide]	> 100000	
Cc1cc(S(=O)(=O)Nc2ccncn2)c(F)cc1O[C@H]1CC(F)(F)CC[C@@H]1c1ccn[nH]1 (relative stereo) [Example 155, 4-{[(1S*,2R*)-5,5-Difluoro-2-(1H-pyrazol-5-yl)cyclohexyl]oxy}-2-fluoro-5-methyl-N-(pyrimidin-4-yl)benzenesulfonamide]	28	
O=S(=O)(Nc1ccncn1)c1cc(Cl)c(O[C@H]2CC(F)(F)CC[C@@H]2c2ccn[nH]2)cc1F (relative stereo) [Example 156, 5-Chloro-4-{[(1S*,2R*)-5,5-difluoro-2-(1H-pyrazol-5-yl)cyclohexyl]oxy}-2-fluoro-N-(pyrimidin-4-yl)benzenesulfonamide]	41	
Cc1cc(S(=O)(=O)Nc2ccncn2)c(F)cc1O[C@H]1CCC(F)(F)C[C@@H]1c1ccn[nH]1 (relative stereo) [Example 157, 4-{[(1S*,2R*)-4,4-Difluoro-2-(1H-pyrazol-5-yl)cyclohexyl]oxy}-2-fluoro-5-methyl-N-(pyrimidin-4-yl)benzenesulfonamide]	50	
Cn1nccc1[C@H]1CC[C@@H](O)C[C@@H]1Oc1cc(F)c(S(=O)(=O)Nc2ccncn2)cc1Cl (relative stereo) [Example 160, 5-Chloro-2-fluoro-4-{[(1S*,2R*,5R*)-5-hydroxy-2-(1-methyl-1H-pyrazol-5-yl)cyclohexyl]oxy}-N-(pyrimidin-4-yl)benzenesulfonamide]	560	
Cn1nccc1[C@H]1C[C@H](O)CC[C@@H]1Oc1cc(F)c(S(=O)(=O)Nc2ccncn2)cc1Cl (relative stereo) [Example 161, 5-Chloro-2-fluoro-4-{[(1S*,2R*,4R*)-4-hydroxy-2-(1-methyl-1H-pyrazol-5-yl)cyclohexyl]oxy}-N-(pyrimidin-4-yl)benzenesulfonamide]	130	
Cn1nccc1[C@H]1C[C@@H](O)CC[C@@H]1Oc1cc(F)c(S(=O)(=O)Nc2ccncn2)cc1Cl (relative stereo) [Example 162, 5-Chloro-2-fluoro-4-{[(1S*,2R*,4S*)-4-hydroxy-2-(1-methyl-1H-pyrazol-5-yl)cyclohexyl]oxy}-N-(pyrimidin-4-yl)benzenesulfonamide]	820	
Cn1nccc1[C@H]1CC[C@H](O)C[C@@H]1Oc1cc(F)c(S(=O)(=O)Nc2ccncn2)cc1Cl (relative stereo) [Example 163, 5-Chloro-2-fluoro-4-{[(1S*,2R*,5S*)-5-hydroxy-2-(1-methyl-1H-pyrazol-5-yl)cyclohexyl]oxy}-N-(pyrimidin-4-yl)benzenesulfonamide]	190	
O=S(=O)(Nc1ncns1)c1cc(F)c(O[C@H]2CCCC[C@@H]2c2ccccc2)cc1F (single isomer, unassigned) [Example 1, 2,5-Difluoro-4-{[(1S*,2R*)-2-phenylcyclohexyl]oxy}-N-(1,2,4-thiadiazol-5-yl)benzenesulfonamide]	120	
O=S(=O)(Nc1ncns1)c1cc(F)c(O[C@H]2CCCC[C@@H]2c2ccccc2)cc1F [Example 2, 2,5-Difluoro-4-{[(1S,2R)-2-phenylcyclohexyl]oxy}-N-(1,2,4-thiadiazol-5-yl)benzenesulfonamide]	20	
O=S(=O)(Nc1ncns1)c1cc(F)c(O[C@@H]2CCCC[C@H]2c2ccccc2)cc1F [Example 75, 2,5-Difluoro-4-{[(1R,2S)-2-phenylcyclohexyl]oxy}-N-(1,2,4-thiadiazol-5-yl)benzenesulfonamide]	> 10000	
Cn1nccc1[C@H]1CCC(F)(F)C[C@@H]1Oc1cc(F)c(S(=O)(=O)Nc2ccncn2)cc1F [Example 102, 4-{[(1S,2R)-5,5-Difluoro-2-(1-methyl-1H-pyrazol-5-yl)cyclohexyl]oxy}-2,5-difluoro-N-(pyrimidin-4-yl)benzenesulfonamide]	36	
Cn1nccc1[C@H]1CCC[C@@H]1Oc1ccc(S(=O)(=O)Nc2ccncn2)c(F)c1 [Example 124, 2-Fluoro-4-{[(1S,2R)-2-(1-methyl-1H-pyrazol-5-yl)cyclopentyl]oxy}-N-(pyrimidin-4-yl)benzenesulfonamide]	2400	
Cc1cc(S(=O)(=O)Nc2ccncn2)c(F)cc1O[C@@H]1CC(F)(F)CC[C@H]1c1cn[nH]c1 [Example 144, 4-{[(1R,2S)-5,5-Difluoro-2-(1H-pyrazol-4-yl)cyclohexyl]oxy}-2-fluoro-5-methyl-N-(pyrimidin-4-yl)benzenesulfonamide]	3400	
Cc1cc(S(=O)(=O)Nc2ccncn2)c(F)cc1O[C@@H]1CCC[C@H]1c1ccn[nH]1 [Example 149, 2-Fluoro-5-methyl-4-{[(1R,2S)-2-(1H-pyrazol-5-yl)cyclopentyl]oxy}-N-(pyrimidin-4-yl)benzenesulfonamide]	32000	
O=S(=O)(Nc1ccncn1)c1cc(Cl)c(O[C@@H]2CCC[C@H]2c2ccn[nH]2)cc1F [Example 151, 5-Chloro-2-fluoro-4-{[(1R,2S)-2-(1H-pyrazol-5-yl)cyclopentyl]oxy}-N-(pyrimidin-4-yl)benzenesulfonamide]	33000	
O=S(=O)(Nc1ccncn1)c1cc(Cl)c(O[C@@H]2CCCC[C@H]2c2ccn[nH]2)cc1F [Example 159, 5-Chloro-2-fluoro-4-{[(1R,2S)-2-(1H-pyrazol-5-yl)cyclohexyl]oxy}-N-(pyrimidin-4-yl)benzenesulfonamide]	9800	
Cn1nccc1[C@@H]1C[C@@H](O)CC[C@H]1Oc1cc(F)c(S(=O)(=O)Nc2ccncn2)cc1Cl [Example 164, 5-Chloro-2-fluoro-4-{[(1R,2S,4S)-4-hydroxy-2-(1-methyl-1H-pyrazol-5-yl)cyclohexyl]oxy}-N-(pyrimidin-4-yl)benzenesulfonamide]	> 10000	
CC(=O)O[C@@H]1CC[C@H](Oc2cc(F)c(S(=O)(=O)Nc3ccncn3)cc2Cl)[C@@H](c2ccnn2C)C1 [Example 166, (1R,3R,4S)-4-[2-Chloro-5-fluoro-4-(pyrimidin-4-ylsulfamoyl)phenoxy]-3-(1-methyl-1H-pyrazol-5-yl)cyclohexyl acetate]	59	
O=S(=O)(Nc1ccncn1)c1c(F)cc(O[C@@H]2CCCC[C@H]2c2cn[nH]c2)cc1F [Example 169, 2,6-Difluoro-4-{[(1R,2S)-2-(1H-pyrazol-4-yl)cyclohexyl]oxy}-N-(pyrimidin-4-yl)benzenesulfonamide]	> 10000	
Cc1cc(S(=O)(=O)Nc2ccncn2)c(F)cc1O[C@@H]1CCCC[C@H]1c1cn[nH]c1 [Example 170, 2-Fluoro-5-methyl-4-{[(1R,2S)-2-(1H-pyrazol-4-yl)cyclohexyl]oxy}-N-(pyrimidin-4-yl)benzenesulfonamide]	> 10000	
Cc1cc(S(=O)(=O)Nc2ccncn2)c(F)cc1O[C@H]1CCCC[C@@H]1c1cn[nH]c1 [Example 172, 2-Fluoro-5-methyl-4-{[(1S,2R)-2-(1H-pyrazol-4-yl)cyclohexyl]oxy}-N-(pyrimidin-4-yl)benzenesulfonamide]	34	

— US9493448B2, “Cycloalkane derivatives” (Daiichi Sankyo Company, Limited, priority 2012, dated 2016)
